Measured values: the supplement of paper PMC13380429

Legend:
Conditions in all cases: 72 h
HepG2 [1] = assay: drug sensitivity score (DSS) for viability; higher = more toxic; extreme values may be limits of the assay
Vero E6 [2] = assay: as above
Caco-2 [3] = assay: as above
U2OS [4] = assay: as above
Calu-3 [5] = assay: as above
HepG2 [6] = assay: relative viability EC50 (midpoint between 100% and the lowest measured viability); higher = less toxic
Vero E6 [7] = assay: as above
Caco-2 [8] = assay: as above
U2OS [9] = assay: as above
Calu-3 [10] = assay: as above
HepG2 [11] = assay: cell viability relative to DMSO; higher = less toxic
Vero E6 [12] = assay: as above
Caco-2 [13] = assay: as above
U2OS [14] = assay: as above
Calu-3 [15] = assay: as above

Row | Compound | drug sensitivity score (HepG2 [1]) | drug sensitivity score (Vero E6 [2]) | drug sensitivity score (Caco-2 [3]) | drug sensitivity score (U2OS [4]) | drug sensitivity score (Calu-3 [5]) | relative viability EC50 (HepG2 [6]) | relative viability EC50 (Vero E6 [7]) | relative viability EC50 (Caco-2 [8]) | relative viability EC50 (U2OS [9]) | relative viability EC50 (Calu-3 [10]) | cell viability (HepG2 [11]; 1 nM) | cell viability (HepG2 [11]; 10 nM) | cell viability (HepG2 [11]; 100 nM) | cell viability (HepG2 [11]; 1000 nM) | cell viability (HepG2 [11]; 10000 nM) | cell viability (Vero E6 [12]; 1 nM) | cell viability (Vero E6 [12]; 10 nM) | cell viability (Vero E6 [12]; 100 nM) | cell viability (Vero E6 [12]; 1000 nM) | cell viability (Vero E6 [12]; 10000 nM) | cell viability (Caco-2 [13]; 1 nM) | cell viability (Caco-2 [13]; 10 nM) | cell viability (Caco-2 [13]; 100 nM) | cell viability (Caco-2 [13]; 1000 nM) | cell viability (Caco-2 [13]; 10000 nM) | cell viability (U2OS [14]; 1 nM) | cell viability (U2OS [14]; 10 nM) | cell viability (U2OS [14]; 100 nM) | cell viability (U2OS [14]; 1000 nM) | cell viability (U2OS [14]; 10000 nM) | cell viability (Calu-3 [15]; 1 nM) | cell viability (Calu-3 [15]; 10 nM) | cell viability (Calu-3 [15]; 100 nM) | cell viability (Calu-3 [15]; 1000 nM) | cell viability (Calu-3 [15]; 10000 nM)
1 | C=C(C)[C@@H]1CCC(C)=C[C@H]1c1c(OC)cc(C)cc1OC [O-1918] | 0 | 0 | 0 | 0 | 0 | > 10 µM | > 10 µM | > 10 µM | > 10 µM | > 10 µM | 101% | 94.9% | 104% | 95.3% | 95.9% | 106% | 102% | 106% | 99.5% | 102% | 96.4% | 105% | 100% | 98.5% | 105% | 102% | 106% | 97% | 101% | 99% | 102% | 97.5% | 96% | 91.6% | 95.9%
2 | Nc1ncnc2c1c(-c1cnc3[nH]ccc3c1)nn2C1CCCC1 [PP-121] | 10.2 | 8.9 | 12.1 | 11.6 | 14.2 | 1.05 µM | 1.43 µM | 0.596 µM | 0.933 µM | 0.355 µM | 121% | 106% | 104% | 58.3% | 11.4% | 99.5% | 104% | 102% | 73.7% | 9.3% | 105% | 100% | 90.5% | 43.6% | 13.1% | 104% | 98.5% | 97% | 48% | 1.6% | 98% | 100% | 85.7% | 33.4% | 15.3%
3 | CC(O)Cn1cnc2c1c(=O)n(C)c(=O)n2C (stereo not given) [Proxyphylline] | 0 | 0 | 0 | 0 | 0 | > 10 µM | > 10 µM | > 10 µM | > 10 µM | > 10 µM | 106% | 102% | 98.7% | 111% | 103% | 90.1% | 99.1% | 87% | 90.8% | 108% | 102% | 93.9% | 99.9% | 101% | 94.6% | 98.9% | 92.8% | 95.1% | 93.6% | 104% | 92.5% | 100% | 106% | 99.3% | 104%
4 | CCOC(=O)Nc1ccc(NCc2ccc(F)cc2)cc1N [Retigabine] | 0 | 0 | 0 | 0 | 0 | > 10 µM | > 10 µM | > 10 µM | > 10 µM | > 10 µM | 97.6% | 106% | 100% | 102% | 105% | 89.5% | 99.1% | 96.1% | 93.5% | 111% | 100% | 102% | 104% | 96.8% | 106% | 102% | 97.4% | 104% | 97% | 98% | 91.8% | 88.5% | 98.4% | 103% | 98.3%
5 | COc1cc(Cc2cnc(N)nc2N)c(C(C)C)cc1OC [Ro-3] | 0 | 0 | 0 | 0 | 0 | > 10 µM | > 10 µM | > 10 µM | > 10 µM | > 10 µM | 99.2% | 92.3% | 93.5% | 101% | 103% | 90.6% | 95.7% | 96.5% | 94.9% | 103% | 94.9% | 90.5% | 97.3% | 101% | 102% | 97.8% | 99.7% | 95% | 102% | 102% | 98.1% | 87.8% | 98% | 101% | 103%
6 | O=C(O)c1ccccc1Nc1cccc(OCc2ccc3ccccc3n2)c1 [SR-2640] | 0 | 0 | 0 | 0 | 0 | > 10 µM | > 10 µM | > 10 µM | > 10 µM | > 10 µM | 87.9% | 96.3% | 96.9% | 101% | 105% | 92% | 98.9% | 92.9% | 95% | 86.9% | 105% | 103% | 107% | 96.8% | 91.7% | 105% | 98.1% | 103% | 99.2% | 101% | 97.6% | 94.6% | 103% | 98.2% | 98.4%
7 | COc1cc(NC(=O)c2cccc(-n3cc(NC(=O)Nc4cccc(C)c4)cn3)c2)cc(OC)c1OC [SR-3576] | 0 | 0 | 1.3 | 0 | 0.6 | > 10 µM | > 10 µM | > 10 µM | > 10 µM | > 10 µM | 98.3% | 99.4% | 94.1% | 95.3% | 99.4% | 101% | 102% | 97.2% | 96.6% | 95.9% | 104% | 105% | 101% | 85.2% | 87.7% | 100% | 102% | 100% | 99.6% | 91.1% | 91.1% | 93.9% | 93.4% | 93.1% | 81%
8 | Cc1sc(C)c2c1CCC=C2c1c[nH]cn1 [TC-G-1000] | 0 | 0 | 0 | 0 | 0 | > 10 µM | > 10 µM | > 10 µM | > 10 µM | > 10 µM | 111% | 108% | 111% | 97% | 104% | 103% | 96.4% | 100% | 99.9% | 96.7% | 106% | 93.3% | 100% | 99.2% | 94.6% | 101% | 96.8% | 95.6% | 102% | 97% | 102% | 97.3% | 102% | 97.2% | 102%
9 | N#Cc1cnc2cnc(NCc3cccnc3)cc2c1Nc1ccc(F)c(Cl)c1 [TC-S-7006] | 4.1 | 0 | 1.9 | 0.4 | 0 | 1.85 µM | > 10 µM | > 10 µM | > 10 µM | > 10 µM | 102% | 93% | 107% | 91.2% | 50% | 97.2% | 94.1% | 94% | 85.8% | 95.4% | 93.3% | 99% | 91.1% | 88.3% | 75.6% | 96.3% | 106% | 96.1% | 96.8% | 85.2% | 96.6% | 96.8% | 96.9% | 91.8% | 89%
10 | Nc1nccc(/C=C/c2ccccc2)n1 [TCN238] | 0 | 0 | 0.4 | 0 | 0 | > 10 µM | > 10 µM | > 10 µM | > 10 µM | > 10 µM | 110% | 92.9% | 112% | 97.3% | 105% | 104% | 98.6% | 101% | 97.7% | 103% | 89.6% | 98% | 89.2% | 100% | 83.2% | 96% | 99.9% | 97.6% | 103% | 97.5% | 98.7% | 97.9% | 99.4% | 102% | 103%
11 | Cn1c2cc([S+](C)[O-])sc2c2cnn(Cc3cccc(N)c3)c(=O)c21 (stereo not given) [TEPP-46] | 0 | 0 | 0 | 0 | 0 | > 10 µM | > 10 µM | > 10 µM | > 10 µM | > 10 µM | 119% | 103% | 111% | 98.5% | 102% | 103% | 97.4% | 106% | 96.3% | 91.9% | 98.7% | 98.3% | 92.7% | 98.1% | 89% | 98.3% | 97.1% | 97.8% | 100% | 98.7% | 104% | 97.6% | 96.7% | 94.7% | 94.7%
12 | CN(C)C/C=C/C(=O)Nc1ccc(C(=O)Nc2cccc(Nc3ncc(Cl)c(-c4c[nH]c5ccccc45)n3)c2)cc1 [THZ1] | 30.2 | 11.5 | 13.5 | 22.6 | 14.4 | 0.0248 µM | 0.811 µM | 0.185 µM | 0.11 µM | 0.107 µM | 108% | 87.2% | 10% | 5.4% | 4.8% | 103% | 101% | 99.4% | 44.4% | 11.4% | 95.6% | 104% | 88.9% | 36.9% | 37% | 97% | 102% | 58.2% | 6.2% | 4.9% | 96.1% | 97% | 71.8% | 39.6% | 40.7%
13 | COc1cc2c(NC3CCN(C)CC3)nc(N3CCCN(C)CC3)nc2cc1OCCOCCN(C)C [UNC0321] | 0 | 0 | 0 | 0 | 0 | > 10 µM | > 10 µM | > 10 µM | > 10 µM | > 10 µM | 99.9% | 107% | 105% | 102% | 102% | 99.7% | 104% | 104% | 97% | 96.9% | 105% | 94% | 102% | 102% | 100% | 100% | 100% | 98.3% | 102% | 97.6% | 89.5% | 107% | 99% | 99.2% | 97%
